Results as given in ChEMBL document CHEMBL1201862, “PubChem BioAssay data set” (2004).
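Growth conditions: 96-well plates. Treatment: test compound, 48 hours, 5 concentrations. Analysis: linear interpolation between bracketing concentrations; unreached endpoints set to highest concentration. GI50 is the concentration that inhibits growth by half.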 Calls of active or inactive are those of the source. Cut-off read from the data, not from the text of the source: active = GI50 up to about 1.1 µM and inactive = higher.

Experiments:
Assay in all cases: growth of human tumour cells (NCI), 48 h
ACHN = tested on: ACHN
NCI-H460 = tested on: NCI-H460
Malme-3M = tested on: Malme-3M
LOX IMVI = tested on: LOX IMVI
SNB-19 = tested on: SNB-19
SW-620 = tested on: SW-620
KM12 = tested on: KM12
CCRF-CEM = tested on: CCRF-CEM
CAKI-1 = tested on: CAKI-1
OVCAR-4 = tested on: OVCAR-4
HOP-92 = tested on: HOP-92
COLO 205 = tested on: COLO 205
M14 = tested on: M14
UO-31 = tested on: UO-31
UACC-62 = tested on: UACC-62
SF-268 = tested on: SF-268
SN12C = tested on: SN12C
SK-OV-3 = tested on: SK-OV-3

Measured: GI50

CCC(=O)CCC1=Nc2nnc(CCCCc3nnc4n3C(=O)C(CCC(=O)CC)=N4)n2C1=O
inactive: ACHN > 100 µM | NCI-H460 > 100 µM | Malme-3M > 100 µM | LOX IMVI > 100 µM | SNB-19 > 100 µM | SW-620 > 100 µM | KM12 > 100 µM | CCRF-CEM > 100 µM | CAKI-1 > 100 µM | OVCAR-4 > 100 µM | HOP-92 > 100 µM | COLO 205 > 100 µM | M14 > 100 µM | UO-31 > 100 µM | UACC-62 > 100 µM | SF-268 > 100 µM | SN12C > 100 µM | SK-OV-3 > 100 µM

Cc1ccccc1C(=O)Oc1ccc(OCc2ccccc2)cc1
inactive: ACHN 9.18 µM | NCI-H460 39.1 µM | Malme-3M > 100 µM | LOX IMVI 99.1 µM | SNB-19 > 100 µM | SW-620 > 100 µM | KM12 > 100 µM | CCRF-CEM 22.2 µM | OVCAR-4 > 100 µM | HOP-92 > 100 µM | COLO 205 > 100 µM | M14 > 100 µM | UO-31 37.2 µM | UACC-62 83.8 µM | SF-268 > 100 µM | SN12C 93.8 µM | SK-OV-3 > 100 µM

C[N+](C)=c1nc(N2CCOCC2)ss1
inactive: ACHN > 100 µM | NCI-H460 8.04 µM | LOX IMVI 88.7 µM | SNB-19 > 100 µM | SW-620 > 100 µM | KM12 > 100 µM | CCRF-CEM > 100 µM | CAKI-1 > 100 µM | HOP-92 > 100 µM | M14 > 100 µM | UO-31 > 100 µM | UACC-62 8.53 µM | SF-268 76.6 µM | SN12C > 100 µM | SK-OV-3 > 100 µM

O=C1C=C(N2CCCC2)C=C(N2CCCC2)C1
inactive: ACHN > 100 µM | NCI-H460 > 100 µM | Malme-3M > 100 µM | LOX IMVI > 100 µM | SNB-19 > 100 µM | SW-620 > 100 µM | KM12 > 100 µM | CCRF-CEM > 100 µM | CAKI-1 > 100 µM | HOP-92 > 100 µM | COLO 205 > 100 µM | M14 > 100 µM | UO-31 > 100 µM | UACC-62 > 100 µM | SF-268 > 100 µM | SK-OV-3 > 100 µM

Cc1cccc(NC2=NC(=O)C(CC(=O)Nc3cccc(C)c3C)S2)c1 (stereo unspecified)
inactive: ACHN > 100 µM | NCI-H460 > 100 µM | Malme-3M > 100 µM | LOX IMVI > 100 µM | SNB-19 > 100 µM | SW-620 > 100 µM | KM12 > 100 µM | CCRF-CEM 25.8 µM | OVCAR-4 > 100 µM | HOP-92 21.2 µM | COLO 205 > 100 µM | M14 > 100 µM | UO-31 > 100 µM | UACC-62 > 100 µM | SF-268 > 100 µM | SN12C > 100 µM

Oc1ccccc1/C=N/Cc1ccco1
inactive: ACHN > 100 µM | NCI-H460 > 100 µM | Malme-3M > 100 µM | LOX IMVI > 100 µM | SNB-19 > 100 µM | SW-620 > 100 µM | KM12 > 100 µM | CCRF-CEM > 100 µM | OVCAR-4 > 100 µM | M14 > 100 µM | UO-31 > 100 µM | UACC-62 > 100 µM | SF-268 > 100 µM | SN12C > 100 µM | SK-OV-3 > 100 µM

Nc1ccc2ncc(Nc3ccc(F)cc3)nc2c1
inactive: ACHN > 100 µM | NCI-H460 > 100 µM | Malme-3M > 100 µM | LOX IMVI > 100 µM | SNB-19 > 100 µM | SW-620 > 100 µM | KM12 46.3 µM | CCRF-CEM 56.8 µM | CAKI-1 > 100 µM | OVCAR-4 > 100 µM | COLO 205 > 100 µM | M14 > 100 µM | UO-31 99.3 µM | SF-268 > 100 µM | SN12C > 100 µM

Cc1nc2c(sc(=S)n2-c2ccccc2)c2nc3ccccc3n12
inactive: ACHN > 100 µM | Malme-3M > 100 µM | LOX IMVI > 100 µM | SNB-19 > 100 µM | KM12 > 100 µM | CCRF-CEM > 100 µM | CAKI-1 > 100 µM | OVCAR-4 > 100 µM | COLO 205 > 100 µM | M14 > 100 µM | UO-31 > 100 µM | UACC-62 > 100 µM | SF-268 > 100 µM | SN12C > 100 µM | SK-OV-3 > 100 µM

O=C(Nc1cccc2ccccc12)Oc1ccccc1C1CCCCC1
inactive: NCI-H460 18.5 µM | Malme-3M 17.7 µM | LOX IMVI 16.3 µM | SNB-19 53.6 µM | SW-620 20.6 µM | KM12 20.2 µM | CCRF-CEM 15 µM | OVCAR-4 16.3 µM | HOP-92 15.8 µM | COLO 205 > 10 µM | M14 18.1 µM | UO-31 16.1 µM | UACC-62 15.9 µM | SF-268 24.4 µM | SN12C 16 µM | SK-OV-3 30.8 µM

CC#COS(=O)(=O)c1ccc(C)cc1
inactive: ACHN 58.2 µM | NCI-H460 70.6 µM | Malme-3M 88.3 µM | LOX IMVI 52 µM | SNB-19 > 100 µM | SW-620 42.7 µM | KM12 59.2 µM | CCRF-CEM 27.9 µM | CAKI-1 > 100 µM | OVCAR-4 58.5 µM | COLO 205 39.9 µM | M14 35.6 µM | UO-31 57.1 µM | UACC-62 32.4 µM | SF-268 93.3 µM | SN12C > 100 µM | SK-OV-3 84.3 µM

CC(=O)OCC1OC(n2c(=S)n(-c3ccccc3)c(=O)c3cc(Br)ccc32)C(OC(C)=O)C1OC(C)=O (stereo unspecified)
inactive: ACHN > 100 µM | NCI-H460 > 100 µM | Malme-3M > 100 µM | LOX IMVI > 100 µM | SNB-19 > 100 µM | SW-620 > 100 µM | KM12 > 100 µM | CAKI-1 11.6 µM | OVCAR-4 > 100 µM | HOP-92 > 100 µM | COLO 205 > 100 µM | M14 > 100 µM | UO-31 > 100 µM | UACC-62 > 100 µM | SF-268 > 100 µM | SN12C > 100 µM | SK-OV-3 > 100 µM

COc1cc2ccc(/C(C)=N/OC(C)=O)cc2cc1OC
inactive: ACHN 65.3 µM | NCI-H460 82.2 µM | Malme-3M > 100 µM | LOX IMVI > 100 µM | SNB-19 > 100 µM | SW-620 > 100 µM | KM12 > 100 µM | CCRF-CEM 66.5 µM | OVCAR-4 > 100 µM | HOP-92 51.3 µM | COLO 205 > 100 µM | M14 > 100 µM | UO-31 34.7 µM | UACC-62 20.8 µM | SF-268 44.4 µM | SN12C 49.5 µM | SK-OV-3 > 100 µM

C=CCC1C(=O)C(C(=O)OC)N2CCc3c([nH]c4ccccc34)C12 (stereo unspecified)
inactive: Malme-3M > 100 µM | SNB-19 > 100 µM | SW-620 > 100 µM | KM12 > 100 µM | CCRF-CEM 95.5 µM | CAKI-1 > 100 µM | OVCAR-4 > 100 µM | HOP-92 57.4 µM | COLO 205 > 100 µM | M14 > 100 µM | UO-31 > 100 µM | UACC-62 > 100 µM | SF-268 > 100 µM | SN12C > 100 µM | SK-OV-3 > 100 µM

CC(=O)Oc1c(-c2ccccc2)[nH]c2cc([N+](=O)[O-])c(/C(Cl)=C/c3ccccc3)cc12
inactive: ACHN 5.4 µM | NCI-H460 4.62 µM | Malme-3M 4.1 µM | SNB-19 8.97 µM | SW-620 8.89 µM | KM12 3.97 µM | CCRF-CEM 3.61 µM | CAKI-1 10.7 µM | OVCAR-4 5.42 µM | HOP-92 3.65 µM | COLO 205 4 µM | M14 7.73 µM | UO-31 8 µM | UACC-62 4.24 µM | SF-268 7.96 µM | SN12C 4.86 µM | SK-OV-3 26.9 µM

O=C(O)CCN(CCCCN(CCC(=O)O)CCC(=O)O)CCC(=O)O
inactive: ACHN > 100 µM | NCI-H460 > 100 µM | Malme-3M > 100 µM | LOX IMVI > 100 µM | SW-620 > 100 µM | KM12 > 100 µM | CCRF-CEM > 100 µM | CAKI-1 > 100 µM | OVCAR-4 > 100 µM | HOP-92 > 100 µM | COLO 205 > 100 µM | M14 > 100 µM | UACC-62 > 100 µM | SF-268 > 100 µM | SN12C > 100 µM | SK-OV-3 > 100 µM

O=C1OC(c2ccccc2)(c2ccccc2)CC1CN1CCOCC1 (stereo unspecified)
inactive: ACHN 17.7 µM | NCI-H460 60.7 µM | Malme-3M 13.5 µM | LOX IMVI 11.4 µM | SNB-19 44.7 µM | SW-620 5.07 µM | KM12 16.7 µM | CCRF-CEM 2.77 µM | OVCAR-4 23.1 µM | COLO 205 6.18 µM | M14 17.1 µM | UO-31 29 µM | UACC-62 25.6 µM | SF-268 27.5 µM | SN12C 12.5 µM | SK-OV-3 26.5 µM

CC1=C2CC[C@@]3(C)C(=CCC3O)C2(C)CCC1=O (stereo partly specified)
inactive: ACHN > 100 µM | NCI-H460 > 100 µM | Malme-3M > 100 µM | LOX IMVI > 100 µM | SNB-19 > 100 µM | SW-620 > 100 µM | KM12 > 100 µM | CCRF-CEM > 100 µM | CAKI-1 > 100 µM | OVCAR-4 > 100 µM | HOP-92 > 100 µM | COLO 205 > 100 µM | M14 > 100 µM | UO-31 > 100 µM | UACC-62 56.4 µM | SF-268 > 100 µM | SN12C > 100 µM | SK-OV-3 > 100 µM
